One molecule from patent publication US12594307B2, “Compositions and methods of using inducible signaling for tunable dynamics in microbial communities” (priority 2019, dated 2026) can be followed below.

Entries after “also recorded” stand apart in the source; their conditions may differ.

Series [1] relates to iSLC strain. As to the kind of experiment: iSLC strain population dynamics in microfluidic inducer gradient device. It is filed as cell-based, E. coli. How it is done: (§1) The iSLC and SLC strains were both cultured in lysogeny broth (LB) media with 50 μg mL^−1 kanamycin, 34 μg mL^−1 chloramphenicol and 0.2% glucose for strains containing ColE1 origin and p15A origin plasmids in a 37° C. shaking incubator. Plasmid pTD103 RpaR-RpaI-LAA-sfGFP^21, ptD103-CFP were constructed by as described in previous studies (see, e.g., FIG. 11). Both plasmids pAM014 and pAM021 were obtained by inserting the 4CL2nt gene under the constitutive promoter J23106 from the Anderson promoter library. The 4CL2nt gene and the promoter were synthesized with overlapping PCR of long oligonucleotides (IDT). All plasmids were constructed by Gibson assembly followed by transformation into DH5α (Thermofisher) chemically competent E. coli. All plasmids were verified by Sanger sequencing before transformation into E. coli strain MG1655.
The microscopy and microfluidics techniques used are similar to those previously reported. The microfluidic devices were constructed from PDMS (polydimethylsiloxane), which was molded and baked on a silicon wafer with micronscale features formed by crosslinked photoresist. Once the PDMS hardened, it was peeled off, and individual devices were cut out. In order to connect fluid lines to the device, holes where punched in correspondence of the inlets and outlets of the device. Afterwards, the devices were bonded onto glass slides using plasma activation. […]

Series [2] concerns iSLC strain. Description: iSLC kill switch induction in microfluidic traps. It is filed as cell-based, E. coli. As to conditions: induction with 500 nM pCA after saturation of traps; 406 traps. The text has this:
(§2) The microscopy and microfluidics techniques used are similar to those previously reported. The microfluidic devices were constructed from PDMS (polydimethylsiloxane), which was molded and baked on a silicon wafer with micronscale features formed by crosslinked photoresist. Once the PDMS hardened, it was peeled off, and individual devices were cut out. In order to connect fluid lines to the device, holes where punched in correspondence of the inlets and outlets of the device. Afterwards, the devices were bonded onto glass slides using plasma activation. Before each experiment, the devices were left for 30 minutes in a vacuum chamber. Meanwhile, 1 mL of overnight cell culture was spun down by centrifugation and re-suspended in 10 μL of fresh media with appropriate antibiotics. […] At 4× magnification fluorescence exposure times were 2 seconds at 30% intensity for both gfp and cfp while at 10× magnification they were 200 us at 30% intensity for both GFP and CFP. […]
(§3) Fluorescence intensity profiles were obtained by analyzing frames from the fluorescent channels. The mean fluorescence values were calculated by drawing a rectangle surrounding each trap individually and extracting the z-axis profile on ImageJ. Fluorescence values shown in FIG. 2 were normalized by dividing all data by a constant factor. […]

Series [3] deals with iSLC and SLC strains co-culture. As to the kind of experiment: co-culture of iSLC and SLC strains under a gradient of inducer concentrations (microfluidics). It is filed as cell-based, E. coli.
Excerpt: as §2, with “antibiotics. After taking the device out of the vacuum chamber, a single droplet of resuspended cells was positioned in correspondence of the outlet opening. Similarly, droplets of sterile fresh media were placed in correspondence of the inlets openings. In all cases, 0.075% Tween20 was added to the medium to prevent cells from sticking to the PDMS walls. After all chip features were wetted, the fluids lines were plugged in and the height of the inlet was raised 10 to 40 cm above the device. The outlet syringe was instead placed at the same height of the device. For co-culturing experiments in FIG. 4, cells were cultured individually overnight and eventually spun down and re-suspended together (1:1 ratio) allowing for a single droplet to be loaded on the device.” for “antibiotics.”
as §3

Series [4] has as its system iSLC strain. As to the kind of experiment: cells survival assay (CFU count) of iSLC strain in liquid culture. It is filed as cell-based, E. coli. As to conditions: 3 mL culture tubes, eight hours; 300 nM, 500 nM, 1 μM; independent of inducer concentration; FIG. 3D. The method, then: Cell viability assays to test the efficacy of iQS as a kill switch were done by measuring colony forming units (CFUs), following a protocol found in the literature. Cells were grown under survival conditions in LB with 0.2% glucose which inhibits the LuxI promoter thanks to the presence of a binding site for the CAP-CAMP activating complex. Following overnight growth, they were transferred into four cultures of fresh LB medium with 0.2% glucose, 300 nM p-coumaric acid, 500 nM p-coumaric acid and 1 μM p-coumaric acid, respectively. Samples were collected every 2 hours and serially diluted in PBS over a 7-log range and spotted (2 μL) onto LB agar plates with 0.2% glucose. The equations used arc: CFU/ml=(number of colonies)×(dilution factor)/0.002 mL, survival ratio (log 10)=log (CFU/ml with glucose)/(CFU/ml with p-coumaric acid).
Experiments were performed to investigate whether inducer concentrations could be modulated during culture to show the culture can switch between states of constant growth (circuit quiescence), synchronized oscillations in population density (cyclic cargo release) and inducible population death (kill switch). To confirm this principle, experiments were performed to test the ability to drive the population dynamics from state one (population growth) to state three (population death) through pCA induction (FIG. 3A). […]

In another series the test system is lux QS system. Description: crosstalk of p-coumaric acid with the lux QS system, growth curves (plate reader). It is filed as cell-based, E. coli. As to conditions: range of pCA concentrations; FIG. 9. How it is done:
(§4) For plate reader experiments, the appropriate strains were seeded from a −80° C. glycerol stock into 3 ml LB with 0.2% glucose and appropriate antibiotics and incubated in a 37° C. shaking incubator. The following day, 2 μL of overnight culture were added to 200 μL fresh media containing appropriate antibiotics in a standard Falcon tissue culture 96-well flat bottom plate. Cells were incubated at 37° C. shaking in a Tecan Infinite M200 Pro. Cells were grown for about 12 hours. The optical density at 600 nm absorbance was measured every 10 minutes.
Experiments were performed to investigate the orthogonal properties of the iQS circuit by co-culturing the iSLC with a non-inducible SLC strain based on the lux QS system, one of the most commonly used and well understood QS systems in synthetic biology (FIG. 4A). […] Next, a previously described microfluidic chip was used (FIG. 2D and FIG. 7) to co-culture the iSLC and SLC strains (starting at 1:1 ratio) under a gradient of inducer concentrations. […] Without inducer, the quiescent iSLC strain was able to displace the SLC strain due to an advantage in population growth rate. At intermediate concentrations (15 nM), stable co-culture of both strains were maintained with independently sustained oscillations for more than 40 hours.

For another series, the system named is wild type E. Coli strain. Description: wild type E. Coli growth curves in a range of p-coumaric acid concentrations (plate reader). It is filed as cell-based. As to conditions: within the characterized concentration range; FIG. 1E. How it is done: as §4
The subject of another series is iQS strain. As to the kind of experiment: iQS strain fluorescence response to pCA, microwell plate reader. It is filed as cell-based, Escherichia Coli. As to conditions: FIG. 1D. How it is done:
To design an exemplary iQS system, the two-step pathway which converts pCA into p-coumaroyl-HSL (pC-HSL) was genetically reconstructed through the production of the intermediate molecule p-coumaroyl-CoA (FIG. 1A). The first conversion is catalyzed by the p-coumaric acid-CoA ligase encoded by the 4CL2nt gene from the plant Nicotiana tabacum while the second step is catalyzed by the RpaI synthase. Additionally, superfolder green fluorescent protein (sfGFP) was added to be able to monitor the inducible dynamics. […] Escherichia Coli was chosen as the host chassis for the double plasmid circuit. The methods described in Example 1 are also applicable to Examples 2, 3, and 4.
as §1, §4

For `O=C(O)/C=C/c1ccc(O)cc1` [pCA, p-coumaric acid], the “fraction of all microfluidics traps able to survive” value in the series with iSLC strain [1] (high pCA concentrations 110 nM to 1 μM, universal cell lysis) is recorded as < 3%. The “average period of sustained synchronized oscillations” value in the series on iSLC strain [1] (intermediate inducer concentration 15 nM) is recorded as “approximately 200 minutes”. Besides, the “microfluidic traps with cell death after synchronized lysis event” value in the series on iSLC strain [2] was “more than 97%”. Besides, the “duration of stable co-culture with independently sustained oscillations” value in series [3] (15 nM, starting 1:1 ratio) was “more than 40 hours”. Besides, in series [3] (110 nM, starting 1:1 ratio), the “co-culture outcome at high pCA concentration” value is “death of all iSLC cells”. The “co-culture outcome at inducer values higher than 340 nM” value in series [3] (higher than 340 nM, FIG. 10) was “iSLC death and SLC takeover”. Further, in the series on iSLC strain [4], the “cell survival (CFU)” value is reported as “several order of magnitude decrease”. Besides, in the series on lux QS system, the “crosstalk with lux QS system / growth curves” value is recorded as “absence of crosstalk; also recorded: growth curves are unaffected”. For the same molecule, the “toxicity to wild type E. Coli (growth curves)” value with wild type E. Coli strain is “not toxic”. Also, the “iQS circuit behavior at intermediate inducer levels” value in the series on iQS strain (1 nM and 10 nM pCA) is “population-dependent switch-like behavior”. Moreover, the “iQS circuit behavior at high inducer concentrations” value in the series with iQS strain (100 nM to 10 μM pCA) is “linear relationship between fluorescence expression and population density”. Also, the “optical density threshold of steep increase in fluorescence signal” value with iQS strain (intermediate levels (1 nM and 10 nM) pCA) is listed as “around 0.3”.
